Data published in US20250268870A1, “SMALL MOLECULE INDUCERS OF CARDIOMYOCYTES TO IMPROVE CARDIAC STRUCTURE AND FUNCTION” (UNIVERSITY OF MARYLAND, BALTIMORE, priority 2022, published 2025).

Columns and labels:
iDCM-CMs [1] = assay: PCNT / MTOC localization (centriolar, split, perinuclear) in C19-treated iDCM-CMs, quantitated by a blinded observer; assay type: cell-based, human; settings: for initiation of the perinuclear MTOC: iDCM-CMs (cDCM-CMs) treated with C19
iDCM-CMs [2] = assay: Sarcomere formation in C19-treated iDCM-CMs (confocal imaging); assay type: cell-based, human; settings: C19-treated iDCM-CMs vs untreated iDCM-CMs
CMs = settings: previously shown; cited from earlier work
iDCM-CMs [3] = assay: Cell shortening (contractility) on Matrigel mattress, edge detection; assay type: cell-based, human
RTTN = assay: Knockdown of RTTN in zebrafish embryos: incidence of pericardial edema; assay type: in vivo; settings: zebrafish embryos at 48 hours post-fertilization; Vehicle=8.4%
Method: Single mating pairs were bred overnight, and embryos were kept at 28.5° C., consistent with standard practices. Injections were performed using an Eppendorf™ FemtoJet 4i microinjector. Needles were pulled using a Sutter Instrument Co. Flaming/Brown Micropipette Puller Model P-97 with filaments from World Precision Instruments (Item #TW100F-4) (heat=90, pull=30, and velocity=7). The translational blocking morpholino oligonucleotide 5′-[…]-3′ (SEQ ID NO: 41) was purchased from GeneTools™. mRNA was generated from pcDNA-dCas9 (Addgene™) using the mMESSAGE mMACHINE T7 ULTRA Transcription Kit from Invitrogen™. Alt-R CRISPR-Cas9 sgRNA, sgRNA #1: 5′-[…]-3 (SEQ ID NO:42) and sgRNA #2: 5′-[…]-3′ (SEQ ID NO:43) were purchased from Integrated DNA Technologies. Wild-type NHGRI embryos were injected at the 1-2 cell stage with MO (6 ng) or dCas9 mRNA (1 ng) with or without the CRISPRi sgRNA (0.5 ng). At 8 hours post fertilization (hpf), E3 water was replaced with 0.003% 1-phenyl-2-thiourea (PTU) in E3, and the embryos remained in PTU until they were phenotyped for cardiac edema, and heart morphology at 48 hpf.

Row | Compound | initiation of the perinuclear MTOC (iDCM-CMs [1]) | initiation of the perinuclear MTOC (iDCM-CMs [1]; listed as C192) | PCNT perinuclear, % of CMs (iDCM-CMs [1]; iDCM-CMs + 10 μM C19 for 48 hours from D30, D32 CMs, control-CMs 23.1%, untreated iDCM-CMs 7.6%, p=0.0082) [%] | sarcomere formation (iDCM-CMs [2]) | centrosome reduction in CMs (CMs) | cell shortening versus healthy control-CMs (iDCM-CMs [3]; D40 C19-treated iDCM-CMs vs control-CMs, p=0.682 (NS)) | contractility (% cell shortening) (iDCM-CMs [3]; D40 C19-treated iDCM-CMs vs untreated iDCM-CMs, p=0.001) | embryos with large pericardial edema (RTTN) [%]
1 | OCCCCOc1nsnc1-c1ccc(Cl)c(Cl)c1 [C19] | improved initiation of the perinuclear MTOC | restored initiation of the perinuclear MTOC | 23.6 | improved sarcomere formation | induce centrosome reduction | comparable levels of cell shortening | significantly improved | –
2 | MO: translational blocking morpholino oligonucleotide 5′-TCTTTATGAGTGACGATAACTCCAT-3′ (SEQ ID NO: 41) against zebrafish RTTN (all phosphorodiamidate morpholino (PMO)) | – | – | – | – | – | – | – | 45.6
